Experimental data as given in paper PMC7179180, “Novel 2,4-Disubstituted-1,3-Thiazole Derivatives: Synthesis, Anti-Candida Activity Evaluation and Interaction with Bovine Serum Albumine” (Molecules, 2020).

biological target: T1, bovine serum albumin (BSA) (Bos taurus, UniProt P02769); experiment: Trp fluorescence quenching; type: binding; settings: pH 7.4, room temperature, BSA 1.5 μM, double-log
T1 construct: gene ALB; native plasma protein, commercial BSA fraction V (Merck), mature single chain of 583 residues, no further purification
Excerpt: Trp fluorescence quenching on bovine serum albumin (BSA)

T1 sequence (P02769 25-607): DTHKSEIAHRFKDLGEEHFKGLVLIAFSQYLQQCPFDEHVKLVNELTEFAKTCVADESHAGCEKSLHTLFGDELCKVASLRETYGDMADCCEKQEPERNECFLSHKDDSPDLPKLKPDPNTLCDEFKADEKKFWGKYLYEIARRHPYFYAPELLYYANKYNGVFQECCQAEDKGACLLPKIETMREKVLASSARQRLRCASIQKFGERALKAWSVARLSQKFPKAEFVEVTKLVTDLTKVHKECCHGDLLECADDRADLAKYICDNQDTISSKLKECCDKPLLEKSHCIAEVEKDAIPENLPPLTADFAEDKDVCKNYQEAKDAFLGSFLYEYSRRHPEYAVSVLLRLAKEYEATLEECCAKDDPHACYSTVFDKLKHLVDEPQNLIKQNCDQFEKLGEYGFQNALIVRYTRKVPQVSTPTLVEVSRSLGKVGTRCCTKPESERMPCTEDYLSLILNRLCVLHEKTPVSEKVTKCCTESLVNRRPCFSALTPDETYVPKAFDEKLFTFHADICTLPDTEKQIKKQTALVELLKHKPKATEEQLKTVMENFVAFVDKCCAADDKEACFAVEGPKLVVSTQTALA

SMILES | Kb × 10^4 (M^-1)
Cc1ccc(C(C)C)c(OCc2nc(-c3ccc(Br)cc3)cs2)c1 [4c, 4-(4-bromophenyl)-2-((2-isopropyl-5-methylphenoxy)methyl)thiazole] | 2.61 × 10^4 M^-1
Cc1ccc(C(C)C)c(OCc2nc(-c3ccc(Cl)cc3)cs2)c1 [4b, 4-(4-chlorophenyl)-2-((2-isopropyl-5-methylphenoxy)methyl)thiazole] | 6.98 × 10^4 M^-1
Cc1ccc(C(C)C)c(OCc2nc(-c3ccc4ccccc4c3)cs2)c1 [4d, 2-((2-isopropyl-5-methylphenoxy)methyl)-4-(naphthalen-2-yl)thiazole] | 8.51 × 10^4 M^-1
COc1ccc(-c2csc(COc3cc(C)ccc3C(C)C)n2)cc1 [4a, 2-((2-isopropyl-5-methylphenoxy)methyl)-4-(4-methoxyphenyl)thiazole] | 6.60 × 10^4 M^-1

Now from value to molecule:

Kb × 10^4 (M^-1) | SMILES
1.85 × 10^4 M^-1 | Cc1ccc(C(C)C)c(OCC(=NNc2nc(-c3ccc(Br)cc3)cs2)c2ccccc2)c1 [7c, 4-(4-bromophenyl)-2-(2-(2-(2-isopropyl-5-methylphenoxy)-1-phenylethylidene)hydrazineyl)thiazole]
18.02 × 10^4 M^-1 | Cc1ccc(C(C)C)c(OCC(=NNc2nc(-c3ccc(Cl)cc3)cs2)c2ccccc2)c1 [7b, 4-(4-chlorophenyl)-2-(2-(2-(2-isopropyl-5-methylphenoxy)-1-phenylethylidene)hydrazineyl)thiazole]
9.14 × 10^4 M^-1 | Cc1ccc(C(C)C)c(OCC(=NNc2nc(-c3ccc4ccccc4c3)cs2)c2ccccc2)c1 [7d, 2-(2-(2-(2-isopropyl-5-methylphenoxy)-1-phenylethylidene)hydrazineyl)-4-(naphthalen-2-yl)thiazole]
5.64 × 10^4 M^-1 | COc1ccc(-c2csc(NN=C(COc3cc(C)ccc3C(C)C)c3ccccc3)n2)cc1 [7a, 2-(2-(2-(2-isopropyl-5-methylphenoxy)-1-phenylethylidene)hydrazineyl)-4-(4-methoxyphenyl)thiazole]
